Laboratory results taken from patent US20230226160A1, “COMPOSITIONS AND METHODS FOR TREATING BACTERIAL INFECTIONS” (MUCPHARM PTY LTD, priority 2020, published 2023).
Entries after “also recorded” stand apart in the source; their conditions may differ.

Tests used:
Format in all cases: cell-based
[1] = test system: Staphylococcus aureus ATCC 6538 biofilms; test: Anti-biofilm activity on preformed 24-hour/48-hour Staphylococcus aureus ATCC 6538 biofilms, 4-hour treatment, crystal violet, 590 nm; settings: 24-hour biofilm
Method: The plates were then incubated at 37° C. for 4 hrs. After treatment, the cells were fixed with 99% methanol and stained with 1% crystal violet. The stained biofilm was dissolved with 33% acetic acid and the absorbance was read at 590 nm. The results were analyzed using Prism GraphPad software.

[2] = test system: Pseudomonas aeruginosa PA01 398 biofilms; test: Anti-biofilm activity on 48-hour Pseudomonas aeruginosa PA01 398 biofilms, 4-hour combined or staged treatment, crystal violet; settings: NAC 25 and 50 mg/ml single agent, FIG. 9
Method: Each plate was then incubated at 37° C. for 24 hrs and, afterwards, the plates were treated with various concentrations of acetylcysteine, bromelain, gentamicin, ampicillin and combinations thereof. The plate was then incubated at 37° C. for 4 hrs.
(§1) After treatment, the cells were fixed with 99% methanol and stained with 1% crystal violet. The stained biofilm was dissolved with 33% acetic acid and the absorbance was read at 590 nm. The results were analyzed using Prism GraphPad software.
Each plate was then incubated at 37° C. for 24 hrs and, afterwards, the plates were treated with various concentrations of acetylcysteine, bromelain and either gentamicin or ampicillin. The plate was then incubated at 37° C. for 4 hrs. After treatment, the cells were fixed with 99% methanol and stained with 1% crystal violet. The stained biofilm was dissolved with 33% acetic acid and the absorbance was read at 590 nm. The results were analyzed using Prism GraphPad software.
In the first series of experiments, the results of which are shown in FIG. 12, 48-hour Pseudomonas aeruginosa PA01 398 biofilms were treated for 4-hours with the compositions shown in the table including ampicillin (50-200 μg/mL), bromelain (25 μg/mL) and acetylcysteine (10 mg/mL) in 5% glucose. […]

[3] = test system: Pseudomonas aeruginosa ATCC 31461 biofilms; test: Anti-biofilm activity on 48-hour Pseudomonas aeruginosa ATCC 31461 biofilms, 4-hour treatment, crystal violet; settings: FIG. 6
Method: Each plate was then incubated at 37° C. for 24 hrs and, afterwards, the plates were treated with various concentrations of acetylcysteine, bromelain and/or ampicillin. The plate was then incubated at 37° C. for 4 hrs.
as §1

biofilm = test: Inventor's summary statements on biofilm experiments; settings: at therapeutically appropriate dosages

Compound | effect on biofilm eradication ([1]; acetylcysteine 20 mg/mL single treatment, 4-hour, FIG. 3) | effect on biofilm as single agent [2] | effectiveness on biofilm ([3]; acetylcysteine 25 mg/mL single agent) | effectiveness on biofilm ([3]; acetylcysteine 50 mg/ml single agent) | effect of acetylcysteine alone on biofilm (biofilm) | biofilm eradication ([1]; gentamicin 12 μg/ml single agent, 4-hour, FIG. 5) [%] | effectiveness of single agent (eradication) ([1]; gentamicin 16 μg/ml single agent, compared to the concentration in combination, FIG. 5) [%] | biofilm eradication ([1]; gentamicin 35 μg/ml single agent, most effective gentamicin treatment)
CC(=O)N[C@@H](CS)C(=O)O [acetylcysteine] | no effect on biofilm eradication | antagonistic | not effective | moderately effective | no appreciable effect; also recorded: relatively ineffective |  |  | 
gentamicin |  |  |  |  |  | 2 | 5 | approximately 60%
